Where two headings read alike, the source gives them in different places.
What was measured:
JAK3 = target: T1, JAK3 (Homo sapiens, UniProt P52333); assay: biochemical
T1 sequence (P52333 1-1124): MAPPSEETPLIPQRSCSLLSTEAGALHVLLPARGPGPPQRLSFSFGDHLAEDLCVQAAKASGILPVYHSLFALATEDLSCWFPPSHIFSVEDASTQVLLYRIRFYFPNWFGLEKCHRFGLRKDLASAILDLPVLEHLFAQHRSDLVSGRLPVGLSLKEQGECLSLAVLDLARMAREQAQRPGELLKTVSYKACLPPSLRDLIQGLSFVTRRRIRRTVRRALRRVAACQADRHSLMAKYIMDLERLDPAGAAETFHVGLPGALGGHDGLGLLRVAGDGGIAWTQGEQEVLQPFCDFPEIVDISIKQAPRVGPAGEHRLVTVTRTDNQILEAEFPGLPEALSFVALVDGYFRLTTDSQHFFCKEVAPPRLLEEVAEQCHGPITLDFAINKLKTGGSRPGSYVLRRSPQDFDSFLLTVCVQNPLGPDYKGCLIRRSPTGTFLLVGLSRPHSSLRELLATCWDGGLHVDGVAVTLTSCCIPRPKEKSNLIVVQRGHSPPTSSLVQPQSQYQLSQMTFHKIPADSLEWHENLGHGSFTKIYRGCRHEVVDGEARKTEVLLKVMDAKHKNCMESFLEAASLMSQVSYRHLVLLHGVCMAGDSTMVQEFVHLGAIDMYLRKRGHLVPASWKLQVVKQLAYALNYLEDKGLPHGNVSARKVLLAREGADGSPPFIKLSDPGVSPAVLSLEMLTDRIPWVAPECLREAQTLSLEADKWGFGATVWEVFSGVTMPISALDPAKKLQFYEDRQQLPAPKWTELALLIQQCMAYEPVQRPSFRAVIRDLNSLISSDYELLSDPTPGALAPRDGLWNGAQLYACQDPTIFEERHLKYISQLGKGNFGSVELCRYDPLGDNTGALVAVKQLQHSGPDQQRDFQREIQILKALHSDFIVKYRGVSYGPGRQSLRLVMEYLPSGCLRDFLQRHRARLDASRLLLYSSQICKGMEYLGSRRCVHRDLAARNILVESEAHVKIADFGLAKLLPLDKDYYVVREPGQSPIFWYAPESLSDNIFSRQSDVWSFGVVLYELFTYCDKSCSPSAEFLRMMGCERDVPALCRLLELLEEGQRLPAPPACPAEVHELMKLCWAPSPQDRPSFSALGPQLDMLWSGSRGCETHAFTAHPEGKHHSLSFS

Colo205 cells = assay: Analysis of cell proliferation and viability; assay type: cell-based; details: Homo sapiens, COLO 205, Colo205 cells, read-out: IC50 value
Aurora-1 (Aurora B) = Aurora-1 (Aurora B) (Homo sapiens, UniProt Q96GD4); assay: Aurora-1 (Aurora B) inhibition assay (radiometric); assay type: biochemical; details: read-out: Aurora B kinase Ki value
Sequence of Aurora-1 (Aurora B) (Q96GD4 whole entry): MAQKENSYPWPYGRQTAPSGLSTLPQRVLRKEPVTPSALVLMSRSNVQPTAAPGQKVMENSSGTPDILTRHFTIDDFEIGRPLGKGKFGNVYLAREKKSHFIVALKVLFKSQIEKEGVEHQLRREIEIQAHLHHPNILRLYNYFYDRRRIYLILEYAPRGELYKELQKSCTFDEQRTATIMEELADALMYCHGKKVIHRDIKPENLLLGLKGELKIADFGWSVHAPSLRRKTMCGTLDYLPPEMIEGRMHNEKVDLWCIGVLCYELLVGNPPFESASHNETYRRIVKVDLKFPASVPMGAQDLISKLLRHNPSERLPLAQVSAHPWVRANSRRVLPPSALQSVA
Procedure, shortened: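 Ki values come from non-linear regression of background-corrected initial-rate data. The enzyme was preincubated 10 min at 25° C with compound, then reacted 3 h with 800 μM (final) [γ-^33P]-ATP in HEPES pH 7.5/MgCl2/BSA/glycerol buffer. The reaction was stopped with phosphoric acid and substrate-bound ^33P counted on phosphocellulose.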

Compound	Ki (JAK3) [nM]	IC50 (Colo205 cells; incubated for 96 hours) [nM]	Ki (Aurora-1 (Aurora B)) [nM]	Ki (JAK3; read-out: JAK3 Ki value) [nM]	IC50 (Colo205 cells; incubated for 72 hours) [nM]
CC1=NN=C(Nc2cc(N3CCC3)nc(Sc3ccc(NC(=O)c4ccccc4)cc3)n2)C1 [Compound 52]	10 to 500	50 to 1000	50 to 2000		
CCC(=O)Nc1ccc(Sc2nc(Nc3cc(C4CC4)n[nH]3)cc(N3CC(N4CCOCC4)C3)n2)cc1 [Compound 78]		≤ 50	≤ 10	≤ 10	
Cc1cc(Nc2cc(N3CCC3)nc(Sc3ccc(NC(=O)c4ccc(CN(C)C)cc4)cc3)n2)[nH]n1 [Compound 137]		50 to 1000	50 to 2000	500 to 2000	
Cc1cc(Nc2cc(N3CC(N4CCOCC4)C3)nc(Sc3ccc(NC(=O)C4(C(F)(F)F)CC4)cc3)n2)[nH]n1 [Compound 191]			≤ 10	10 to 500	≤ 30
Cc1cc(Nc2cc(N3CCC3)nc(Sc3ccc(C(=O)NCc4ccccc4)cc3)n2)n[nH]1 [Compound 19]	10 to 500	> 1000	≤ 10		
Cc1cc(Nc2cc(N3CCC3)nc(Sc3ccc(C(=O)NCc4ccccc4Cl)cc3)n2)n[nH]1 [Compound 24]	500 to 2000	> 1000	50 to 2000		
COC1CN(c2cc(Nc3cc(C)[nH]n3)nc(Sc3ccc(NC(=O)c4ccccc4Cl)cc3)n2)C1 [Compound 12]	≤ 10	≤ 50	≤ 10		
Cc1cnc(Nc2cc(N3CC(N)C3)nc(Sc3ccc(NC(=O)C4CC4)cc3)n2)s1 [Compound 2]	500 to 2000	50 to 1000	50 to 2000		
Cc1cc(Nc2cc(N3CCC3)nc(Sc3ccc(NC(=O)c4cc(C)nc(Cl)c4)cc3)n2)[nH]n1 [Compound 149]	10 to 500		10 to 50		> 200
CC1=NN=C(Nc2cc(N3CCC3)nc(Sc3ccc(NC(=O)c4ccccc4Cl)cc3)n2)C1 [Compound 5]		50 to 1000	≤ 10	10 to 500	30 to 200
Cc1cc(Nc2cc(N3CCC3)nc(Sc3ccc(NC(=O)OC(C)(C)C)cc3)n2)n[nH]1 [Compound 26]	500 to 2000	> 1000	50 to 2000		
Cc1cc(Nc2cc(N3CCC3)nc(Sc3ccc(NC(=O)CC(F)(F)F)cc3)n2)n[nH]1 [Compound 40]		50 to 1000	≤ 10	10 to 500	30 to 200
Cc1cc(Nc2cc(N3CCC3)nc(Sc3ccc(NC(=O)C4CC4)cc3)n2)n[nH]1 [Compound 17]	10 to 500	50 to 1000	10 to 50		
CC1=NN=C(Nc2cc(N3CCC3)nc(Sc3ccc(NC(=O)c4cccc(Cl)c4F)cc3)n2)C1 [Compound 61]		50 to 1000	≤ 10	10 to 500	
CC(=O)Nc1cccc(Sc2nc(Nc3cc(C)n[nH]3)cc(N3CC(F)(C4CC4)C3)n2)c1 [Compound 188]			10 to 50	10 to 500	> 200

— patent US8637511B2, “Aminopyrimidines useful as kinase inhibitors” (Vertex Pharmaceuticals Incorporated, priority 2005, dated 2014)
